Source: PubChem BioAssay (NCI)
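Results reflect a 48-hour exposure of cells in 96-well plates to compound at five concentrations. The concentration for full growth arrest is given as TGI.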

Columns and labels:
Assay in all cases: DTP human tumour cell line panel, 48 h
SN12C renal = tested on: SN12C renal
LXFL 529 NSCLC = tested on: LXFL 529 NSCLC
HCT-15 colon = tested on: HCT-15 colon
M14 melanoma = tested on: M14 melanoma
MOLT-4 leukemia = tested on: MOLT-4 leukemia
MALME-3M melanoma = tested on: MALME-3M melanoma
DMS 114 small cell lung = tested on: DMS 114 small cell lung
TK-10 renal = tested on: TK-10 renal
A549 NSCLC = tested on: A549 NSCLC
M19-MEL melanoma = tested on: M19-MEL melanoma
RXF 393 renal = tested on: RXF 393 renal
OVCAR-5 ovarian = tested on: OVCAR-5 ovarian
SK-MEL-5 melanoma = tested on: SK-MEL-5 melanoma
786-0 renal = tested on: 786-0 renal
U251 CNS = tested on: U251 CNS
A498 renal = tested on: A498 renal
OVCAR-4 ovarian = tested on: OVCAR-4 ovarian
SW-620 colon = tested on: SW-620 colon
SNB-75 CNS = tested on: SNB-75 CNS
CCRF-CEM leukemia = tested on: CCRF-CEM leukemia
K-562 leukemia = tested on: K-562 leukemia
NCI-H522 lung = tested on: NCI-H522 lung
OVCAR-8 ovarian = tested on: OVCAR-8 ovarian
DMS 273 small cell lung = tested on: DMS 273 small cell lung
SF-295 CNS = tested on: SF-295 CNS
UO-31 renal = tested on: UO-31 renal
IGROV1 ovarian = tested on: IGROV1 ovarian
HT29 colon = tested on: HT29 colon
ACHN renal = tested on: ACHN renal
UACC-257 melanoma = tested on: UACC-257 melanoma
KM20L2 colon = tested on: KM20L2 colon
COLO 205 colon = tested on: COLO 205 colon
CAKI-1 renal = tested on: CAKI-1 renal
SF-539 CNS = tested on: SF-539 CNS
HCT-116 colon = tested on: HCT-116 colon
EKVX NSCLC = tested on: EKVX NSCLC
SK-OV-3 ovarian = tested on: SK-OV-3 ovarian
XF 498 CNS = tested on: XF 498 CNS
NCI-H226 lung = tested on: NCI-H226 lung
NCI/ADR-RES ovarian = tested on: NCI/ADR-RES ovarian
KM12 colon = tested on: KM12 colon
OVCAR-3 ovarian = tested on: OVCAR-3 ovarian
SNB-19 CNS = tested on: SNB-19 CNS
SK-MEL-28 melanoma = tested on: SK-MEL-28 melanoma
NCI-H460 lung = tested on: NCI-H460 lung
HOP-92 NSCLC = tested on: HOP-92 NSCLC
HS 578T breast = tested on: HS 578T breast
DU-145 prostate = tested on: DU-145 prostate
HL-60(TB) leukemia = tested on: HL-60(TB) leukemia
UACC-62 melanoma = tested on: UACC-62 melanoma
MDA-N = tested on: MDA-N
SK-MEL-2 melanoma = tested on: SK-MEL-2 melanoma
NCI-H23 lung = tested on: NCI-H23 lung
MDA-MB-231 breast = tested on: MDA-MB-231 breast
MCF7 breast = tested on: MCF7 breast
HOP-62 NSCLC = tested on: HOP-62 NSCLC
HCC-2998 colon = tested on: HCC-2998 colon
RPMI-8226 leukemia = tested on: RPMI-8226 leukemia
T-47D breast = tested on: T-47D breast
BT-549 breast = tested on: BT-549 breast
SR leukemia = tested on: SR leukemia
MDA-MB-435 = tested on: MDA-MB-435
LOX IMVI melanoma = tested on: LOX IMVI melanoma
PC-3 prostate = tested on: PC-3 prostate
SF-268 CNS = tested on: SF-268 CNS

## CCCCCCCCCCNCCSSCc1ccc(Cl)cc1
SN12C renal
  TGI: 3.86 µM
LXFL 529 NSCLC
  TGI: 2.9 µM
HCT-15 colon
  TGI: 6.54 µM
M14 melanoma
  TGI: 1.17 µM
MOLT-4 leukemia
  TGI: 3.08 µM
MALME-3M melanoma
  TGI: 7.69 µM
DMS 114 small cell lung
  TGI: 3.23 µM
TK-10 renal
  TGI: 4.04 µM
A549 NSCLC
  TGI: 3.59 µM
M19-MEL melanoma
  TGI: 3.58 µM
RXF 393 renal
  TGI: 11.6 µM
OVCAR-5 ovarian
  TGI: 3.72 µM
SK-MEL-5 melanoma
  TGI: 1.88 µM
786-0 renal
  TGI: 24.2 µM
U251 CNS
  TGI: 10.2 µM
A498 renal
  TGI: 28.4 µM
OVCAR-4 ovarian
  TGI: 3.09 µM
SW-620 colon
  TGI: 3.02 µM
SNB-75 CNS
  TGI: 20.6 µM
CCRF-CEM leukemia
  TGI: 4.87 µM
K-562 leukemia
  TGI: 5.27 µM
NCI-H522 lung
  TGI: 3.18 µM
OVCAR-8 ovarian
  TGI: 3.8 µM
DMS 273 small cell lung
  TGI: 2.99 µM
SF-295 CNS
  TGI: 4.79 µM
UO-31 renal
  TGI: 4.84 µM
IGROV1 ovarian
  TGI: 7.62 µM
HT29 colon
  TGI: 3.74 µM
ACHN renal
  TGI: 18.5 µM
UACC-257 melanoma
  TGI: 2.31 µM
KM20L2 colon
  TGI: 3.07 µM
COLO 205 colon
  TGI: 5.95 µM
CAKI-1 renal
  TGI: 7.15 µM
SF-539 CNS
  TGI: 3.64 µM
HCT-116 colon
  TGI: 3.14 µM
EKVX NSCLC
  TGI: 5.14 µM
SK-OV-3 ovarian
  TGI: 8.22 µM
XF 498 CNS
  TGI: 5.22 µM

## C=C(C)[C@@H](O)[C@H](O)C[C@H](C)C1CC[C@]2(C)C1=CC[C@@H]1[C@@]3(C)CC[C@@H](OC(C)=O)C(C)(C)[C@@H]3C[C@@H](OC3OC(COC(C)=O)C(O)C(O)C3O)[C@]12C (some centres not stated)
NCI-H226 lung
  TGI: 10.3 µM
NCI/ADR-RES ovarian
  TGI: 32 µM
SN12C renal
  TGI: 11.3 µM
KM12 colon
  TGI: 2.95 µM
HCT-15 colon
  TGI: 11.7 µM
OVCAR-3 ovarian
  TGI: 4.79 µM
M14 melanoma
  TGI: 7.38 µM
MOLT-4 leukemia
  TGI: 4.5 µM
SNB-19 CNS
  TGI: 14.7 µM
MALME-3M melanoma
  TGI: 4.81 µM
SK-MEL-28 melanoma
  TGI: 6.08 µM
TK-10 renal
  TGI: 10.6 µM
A549 NSCLC
  TGI: 12.2 µM
RXF 393 renal
  TGI: 4.49 µM
OVCAR-5 ovarian
  TGI: 4.43 µM
NCI-H460 lung
  TGI: 6.51 µM
SK-MEL-5 melanoma
  TGI: 3.73 µM
786-0 renal
  TGI: 11.4 µM
U251 CNS
  TGI: 5.86 µM
A498 renal
  TGI: 10.4 µM
OVCAR-4 ovarian
  TGI: 9.17 µM
SW-620 colon
  TGI: 12.3 µM
SNB-75 CNS
  TGI: 8.32 µM
CCRF-CEM leukemia
  TGI: 5.95 µM
HOP-92 NSCLC
  TGI: 6.17 µM
HS 578T breast
  TGI: 10 µM
K-562 leukemia
  TGI: 5.21 µM
NCI-H522 lung
  TGI: 3.55 µM
OVCAR-8 ovarian
  TGI: 13.8 µM
DU-145 prostate
  TGI: 11.1 µM
HL-60(TB) leukemia
  TGI: 4.2 µM
SF-295 CNS
  TGI: 4.69 µM
UACC-62 melanoma
  TGI: 4.52 µM
MDA-N
  TGI: 8.55 µM
SK-MEL-2 melanoma
  TGI: 3.63 µM
UO-31 renal
  TGI: 12.4 µM
IGROV1 ovarian
  TGI: 6.4 µM
NCI-H23 lung
  TGI: 16.1 µM
MDA-MB-231 breast
  TGI: 6.64 µM
HT29 colon
  TGI: 4.04 µM
ACHN renal
  TGI: 6.36 µM
UACC-257 melanoma
  TGI: 8.53 µM
MCF7 breast
  TGI: 8.82 µM
HOP-62 NSCLC
  TGI: 10.1 µM
COLO 205 colon
  TGI: 3.39 µM
CAKI-1 renal
  TGI: 11.8 µM
SF-539 CNS
  TGI: 11.7 µM
HCT-116 colon
  TGI: 5.88 µM
HCC-2998 colon
  TGI: 1.69 µM
EKVX NSCLC
  TGI: 12.3 µM
RPMI-8226 leukemia
  TGI: 4.43 µM
T-47D breast
  TGI: 8.51 µM
BT-549 breast
  TGI: 10.3 µM
SR leukemia
  TGI: 4.2 µM
MDA-MB-435
  TGI: 4.42 µM
LOX IMVI melanoma
  TGI: 3.31 µM
SK-OV-3 ovarian
  TGI: 10.4 µM
PC-3 prostate
  TGI: 6.59 µM
SF-268 CNS
  TGI: 9.86 µM
